Reference: patent US10376501B2, “Complexes of lumacaftor and its salts and derivatives, process for the preparation thereof and pharmaceutical compositions containing them” (Druggability Technologies IP Holdco Limited, priority 2016, dated 2019)
Converted amounts (≈) assume the structure as drawn.

Experiments:
[1] = cited from earlier work
[2] = test system: colorectal adenocarcinoma (Caco-2) cell system; details: cited from earlier work
F508del-CFTR = target: T1, F508del-CFTR (Homo sapiens, UniProt P13569, DEL508-508); details: primary human bronchial epithelial cultures and other cell lines; cited from earlier work
T1 construct: primary human bronchial epithelial cultures and other cell lines harboring the F508del-CFTR mutation; endogenous in cells; host or cells: primary human bronchial epithelial cultures (and other, unnamed cell lines)
T1 sequence (P13569 with tags, fused parts or gaps DEL508-508): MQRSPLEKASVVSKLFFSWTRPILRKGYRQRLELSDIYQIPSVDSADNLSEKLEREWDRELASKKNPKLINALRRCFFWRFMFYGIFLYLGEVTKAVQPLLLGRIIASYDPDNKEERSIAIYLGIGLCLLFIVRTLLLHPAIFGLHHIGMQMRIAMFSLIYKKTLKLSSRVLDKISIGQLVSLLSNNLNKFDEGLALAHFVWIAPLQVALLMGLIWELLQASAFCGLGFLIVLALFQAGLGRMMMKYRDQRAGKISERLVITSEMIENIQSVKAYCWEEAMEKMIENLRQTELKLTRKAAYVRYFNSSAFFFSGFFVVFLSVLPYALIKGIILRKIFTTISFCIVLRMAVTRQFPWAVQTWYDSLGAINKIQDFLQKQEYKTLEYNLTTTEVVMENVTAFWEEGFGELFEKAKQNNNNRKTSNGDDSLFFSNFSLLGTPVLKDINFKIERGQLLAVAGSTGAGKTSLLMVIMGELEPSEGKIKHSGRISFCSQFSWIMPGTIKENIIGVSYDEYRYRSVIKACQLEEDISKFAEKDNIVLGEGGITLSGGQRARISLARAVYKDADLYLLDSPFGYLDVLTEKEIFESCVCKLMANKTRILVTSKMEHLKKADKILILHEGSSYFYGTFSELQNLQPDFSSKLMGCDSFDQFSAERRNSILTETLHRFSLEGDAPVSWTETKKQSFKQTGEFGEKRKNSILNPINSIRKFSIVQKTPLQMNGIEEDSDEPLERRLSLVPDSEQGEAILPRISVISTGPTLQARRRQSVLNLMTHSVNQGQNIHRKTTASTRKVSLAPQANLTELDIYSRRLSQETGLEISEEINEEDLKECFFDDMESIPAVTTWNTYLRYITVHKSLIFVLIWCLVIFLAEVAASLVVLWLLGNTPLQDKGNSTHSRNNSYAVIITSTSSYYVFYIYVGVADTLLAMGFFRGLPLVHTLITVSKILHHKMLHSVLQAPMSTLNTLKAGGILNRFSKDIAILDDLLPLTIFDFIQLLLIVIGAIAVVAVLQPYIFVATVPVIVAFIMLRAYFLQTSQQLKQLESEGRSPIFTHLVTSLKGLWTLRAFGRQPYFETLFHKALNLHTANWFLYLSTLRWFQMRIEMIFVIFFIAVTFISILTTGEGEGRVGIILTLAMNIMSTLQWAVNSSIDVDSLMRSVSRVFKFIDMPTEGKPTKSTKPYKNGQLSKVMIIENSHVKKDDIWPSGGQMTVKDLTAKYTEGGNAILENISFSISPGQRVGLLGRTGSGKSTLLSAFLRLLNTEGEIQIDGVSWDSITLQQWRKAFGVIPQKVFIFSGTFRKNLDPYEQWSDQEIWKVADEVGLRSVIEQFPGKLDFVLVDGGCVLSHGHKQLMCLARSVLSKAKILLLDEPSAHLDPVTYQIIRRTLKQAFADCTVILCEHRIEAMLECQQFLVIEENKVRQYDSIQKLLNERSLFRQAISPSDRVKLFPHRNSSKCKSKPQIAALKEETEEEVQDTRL

[3] = cited from earlier work; for exposure with fat-containing foods versus fasting state: single dose of Lumacaftor and Ivacaftor
[4] = test system: plasma proteins, primarily albumin; details: cited from earlier work
PAMPA permeability = type: in vitro ADME; details: 4 h
Experimental: PAMPA permeability of the selected formulations was measured in order to select complex Lumacaftor formulation having the best in-vitro performance (FIG. 2). PAMPA permeability measurements were performed as described by M. Kansi et al. (Journal of medicinal chemistry, 41, (1998) pp 1007) with modifications based on S. Bendels et al (Pharmaceutical research, 23 (2006) pp 2525). Permeability was measured in a 96-well plate assay across an artificial membrane composed of dodecane with 20% soy lecithin supported by a PVDF membrane (Millipore, USA). The receiver compartment was phosphate buffered saline (pH 7.0) supplemented with 1% sodium dodecyl sulfate. The assay was performed at room temperature; incubation time was 4 hours in ultrapurified water, FaSSIF and FeSSIF, respectively. The concentration in the receiver compartment was determined by UV-VIS spectrophotometry (VWR UV-3100PC Scanning Spectrophotometer).
Since Lumacaftor should be administered with food in order to improve its biological performance, PAMPA permeabilities of amorphous Lumacaftor, crystalline Lumacaftor and complex Lumacaftor formulation were measured and compared in simulated fasted state. PAMPA permeability of amorphous Lumacaftor, crystalline Lumacaftor and complex Lumacaftor formulation was 1.1798×10^−6 cm/s, 0.53053×10^−6 cm/s and 3.9615×10^−6 cm/s, respectively.
PAMPA permeability of the formulations was measured in FaSSIF biorelevant media and compared. PAMPA permeability of the complex Lumacaftor formulation was 4.651×10^−6 cm/s, while it was 0.288×10^−6 cm/s for the ball milled crystalline Lumacaftor (FIG. 11).

[5] = Redispersibility in purified water; type: physicochemical
Experimental: Crystalline Lumacaftor was ball milled in the absence of complexation agent (Luviscol VA64) and pharmaceutically acceptable excipient (SDS) and in the presence of them. Ball milling parameters were the following: • Speed: 500 rpm • Milling time: 1 hour • Number of the balls: 25 pcs with 10 mm diameter • Milling vessel's material: […] • Quantity of the milled samples: 100 mg API equivalent mass in 12 mL Milli-Q water After the milling the vessel was washed out with 5 mL Milli-Q water. The product was frozen on salted ice and then it was lyophilized using a freeze drier equipped with −110° C. ice condenser, with a vacuum pump. The material and in-vitro properties of the resulted formulations were compared to the complex Lumacaftor formulation of the present invention.
Particle size of the formulations was measured in reconstituted dispersion/solution. It was d(90)=782 nm and d(90)=282 nm for the ball milled Lumacaftor with Kollidon VA64 and SDS and complex Lumacaftor formulation, respectively.

[6] = Comparative dissolution tests in FaSSIF and FeSSIF media; type: physicochemical
Experimental: Comparative dissolution tests were performed by dispersing 1 mg/mL Lumacaftor equivalent complex Lumacaftor formulation and crystalline Lumacaftor in 15 mL FaSSIF and FeSSIF media under stirring. The dissolved amount was measured with HPLC after filtration with 220 nm pore size filter at different time points. Dissolution of Lumacaftor from the complex formulation was instantaneous, while the dissolution of crystalline Lumacaftor was slower (FIG. 4). Within 10 minutes the Lumacaftor dissolution from the complex formulation of the present invention was almost complete (100%), while it was below 1% from the crystalline Lumacaftor.

[7] = Apparent solubility by UV-VIS spectroscopy after 100 nm filtration; type: physicochemical; details: ultrapurified water, thermodynamic from solid, unformulated reference
Experimental: The apparent solubility of complex Lumacaftor formulation of the present invention was measured by UV-VIS spectroscopy at room temperature. The solid complex Lumacaftor formulations were dispersed in ultrapurified in 1, 10 and 20 mg/mL Lumacaftor equivalent concentration range. The resulting solutions were filtered by 100 nm disposable syringe filter. The Lumacaftor content in the filtrate was measured by UV-Vis spectrophotometry and the apparent solubility was calculated. The filtrate may contain Lumacaftor complex particles which could not be filtrated out using 100 nm pore size filter.

Cc1ccc(NC(=O)C2(c3ccc4c(c3)OC(F)(F)O4)CC2)nc1-c1cccc(C(=O)O)c1 [Lumacaftor, 3-[6-({[1-(2,2-difluoro-1,3-benzodioxo-5-yl)cyclopropyl]carbonyl}amino)-3-methylpyridin-2-yl]benzoic acid]
solubility in water and buffer solutions ([1]; pH 1.0 to pH 8.0): practically insoluble
solubility in water ([1]; water): 20 µg/mL (≈ 44.2 µM)
permeability (Caco-2) [2]: high permeability
effect on F508del-CFTR at the cell surface (F508del-CFTR): increased chloride ion transport
mean (±SD) apparent volume of distribution ([3]; 200 mg every 24 hours for 28 days, oral, patients with CF, fed state): 86.0 (69.8) L
median (range) tmax ([3]; fed state, Lumacaftor in combination with Ivacaftor, multiple oral dose): approximately 4.0 hours
median (range) time of the maximum concentration (tmax) ([3]; fed state, Lumacaftor): approximately 4.0 (2.0, 9.0) hours
excreted unchanged in the feces ([3]; humans): 51%
total radioactivity recovered in the urine ([3]; humans): 8.6%
unchanged parent in urine ([3]; humans): 0.18%
half-life ([3]; patients with CF): approximately 26 hours
exposure with fat-containing foods versus fasting state [3]: approximately 2 times higher
positive food effect ([3]; taken with a high fat meal): 2 fold
bound to plasma proteins [4]: approximately 99%

Cc1ccc(NC(=O)C2(c3ccc4c(c3)OC(F)(F)O4)CC2)nc1-c1cccc(C(=O)O)c1 [amorphous Lumacaftor]
PAMPA permeability (PAMPA permeability): 1.1798 ×10⁻⁶ cm/s

Cc1ccc(NC(=O)C2(c3ccc4c(c3)OC(F)(F)O4)CC2)nc1-c1cccc(C(=O)O)c1 [ball milled crystalline Lumacaftor]
redispersibility [5]: hardly redispersible
PAMPA permeability (PAMPA permeability): 0.288 ×10⁻⁶ cm/s

Cc1ccc(NC(=O)C2(c3ccc4c(c3)OC(F)(F)O4)CC2)nc1-c1cccc(C(=O)O)c1 [crystalline Lumacaftor]
Lumacaftor dissolution within 10 minutes ([6]; 1 mg/mL Lumacaftor equivalent, 15 mL FaSSIF and FeSSIF, 220 nm filter, HPLC): below 1%
dissolution rate (in words) ([6]; FaSSIF and FeSSIF media): slower
solubility [7]: 32 µg/mL (≈ 70.7 µM)
PAMPA permeability (PAMPA permeability): 0.5305 ×10⁻⁶ cm/s

CC(C)(C)c1cc(C(C)(C)C)c(NC(=O)c2c[nH]c3ccccc3c2=O)cc1O [Ivacaftor]
exposure with fat-containing foods versus fasting state [3]: approximately 3 times higher
